One block for each molecule: values may come before it.
Experiments:
LPA1 [1] = target: T1, LPA1 (Homo sapiens, UniProt Q92633); parameters: host or cells: IPF patients (in vivo); details: 26-week clinical trial, IPF patients; cited from earlier work
LPA1 [2] = target: T1, LPA1; assay: LPA1 functional antagonist assay (calcium flux in CHO cells overexpressing human LPA1); format: cell-based; parameters: expressed in transfected cells; host or cells: Chinese hamster ovary (CHO) cells; details: CHO cells overexpressing human LPA1, calcium flux induced by 10 nM LPA; read-out: hLPA1 IC50
Procedure: The effectiveness of compounds of the present invention as LPA1 inhibitors can be determined in an LPA1 functional antagonist assay as follows:
Chinese hamster ovary cells overexpressing human LPA1 were plated overnight (15,000 cells/well) in poly-D-lysine coated 384-well microplates (Greiner bio-one, Cat #781946) in DMEM/F12 medium (Gibco, Cat #11039). Following overnight culture, cells were loaded with calcium indicator dye (AAT Bioquest Inc, Cat #34601) for 30 minutes at 37° C. The cells were then equilibrated to room temperature for 30 minutes before the assay. Test compounds solubilized in DMSO were transferred to 384 well non-binding surface plates (Corning, Cat #3575) using the Labcyte Echo acoustic dispense and diluted with assay buffer [[…] with calcium/magnesium (Gibco Cat #14025-092), 20 mM HEPES (Gibco Cat #15630-080) and 0.1% fatty acid free BSA (Sigma Cat #A9205)] to a final concentration of 0.5% DMSO. Diluted compounds were added to the cells by FDSS6000 (Hamamatsu) at final concentrations ranging from 0.08 nM to 5 μM. and were then incubated for 20 min at room temperature at which time LPA (Avanti Polar Lipids Cat #857130C) was added at final concentrations of 10 nM to stimulate the cells. The compound IC50 value was defined as the concentration of test compound which inhibited 50% of the calcium flux induced by LPA alone. IC50 values were determined by fitting data to a 4-parameter logistic equation (GraphPad Prism, San Diego Calif.).

nerve-injured mice = details: pretreatment; cited from earlier work
[3] = test system: human foetal lung fibroblasts; details: cited from earlier work
[4] = test system: highly peritoneal metastatic pancreatic cancer cell line; details: cited from earlier work
CTGF = details: MCT cells, co-treatment with LPA; cited from earlier work
UUO mice = details: compared with LPA1 (-/-) mice; cited from earlier work
[5] = test system: pancreatic cancer cell lines; details: cited from earlier work

T1 sequence (Q92633 whole entry): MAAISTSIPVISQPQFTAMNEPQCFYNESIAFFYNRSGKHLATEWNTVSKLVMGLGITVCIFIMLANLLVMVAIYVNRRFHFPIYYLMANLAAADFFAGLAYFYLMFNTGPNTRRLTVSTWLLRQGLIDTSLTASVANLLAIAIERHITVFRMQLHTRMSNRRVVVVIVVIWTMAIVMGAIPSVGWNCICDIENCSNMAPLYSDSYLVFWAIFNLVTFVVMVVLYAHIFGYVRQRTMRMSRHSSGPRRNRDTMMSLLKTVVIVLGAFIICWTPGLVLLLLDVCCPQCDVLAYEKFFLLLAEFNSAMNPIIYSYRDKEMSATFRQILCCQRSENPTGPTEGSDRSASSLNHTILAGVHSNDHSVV

Structure (SMILES): Cc1noc(-c2ccc(-c3ccc(C4(C(=O)O)CC4)cc3)cc2)c1NC(=O)O[C@H](C)c1ccccc1 [BMS-986020]
rate of FVC (forced vital capacity) decline (LPA1 [1]): significantly reduce the rate of FVC (forced vital capacity) decline

IC50 (LPA1 [2]): 2470 nM
Structure (SMILES): CCCc1nnc(NCc2c(C)noc2-c2ccc(O[C@H]3CCC[C@H](C(=O)O)C3)cn2)s1 [Example 1, (1S,3S)-3-((6-(3-methyl-4-(((5-propyl-1,3,4-thiadiazol-2-yl)amino)methyl)isoxazol-5-yl)pyridin-3-yl)oxy)cyclohexane-1-carboxylic Acid]

IC50 (LPA1 [2]): 712 nM
Structure (SMILES): Cc1noc(-c2ccc(O[C@H]3CCC[C@H](C(=O)O)C3)cn2)c1CNc1ncc(-c2ccccc2)s1 [Example 3, (1S,3S)-3-((6-(3-methyl-4-(((5-phenyl-thiazol-2-yl)amino)methyl)isoxazol-5-yl)pyridin-3-yl)oxy) cyclohexane-1-carboxylic acid]

IC50 (LPA1 [2]): 153 nM
Structure (SMILES): Cc1noc(-c2ccc(O[C@H]3CCC[C@H](C(=O)O)C3)cn2)c1CNc1nc(-c2ccccc2)ns1 [Example 4, (1S,3S)-3-((6-(3-methyl-4-(((3-phenyl-1,2,4-thiadiazol-5-yl)amino)methyl)isoxazol-5-yl)pyridin-3-yl)oxy) cyclohexane-1-carboxylic acid]

IC50 (LPA1 [2]): 41 nM
Structure (SMILES): Cc1nc(NCc2c(C)noc2-c2ccc(O[C@H]3CCC[C@H](C(=O)O)C3)cn2)sc1-c1ccccc1 [Example 5]

IC50 (LPA1 [2]): 486 nM
Structure (SMILES): Cc1noc(-c2ccc(O[C@H]3CCC[C@H](C(=O)O)C3)cn2)c1CNc1ncc(C(F)(F)F)s1 [Example 6, (1S,3S)-3-((6-(3-methyl-4-(((5-(trifluoromethyl)thiazol-2-yl)amino)methyl)isoxazol-5-yl)pyridin-3-yl)oxy)cyclohexane-1-carboxylic acid]

IC50 (LPA1 [2]): 29 nM
Structure (SMILES): Cc1nc(-c2onc(C)c2CNc2ncn(-c3ccccc3)n2)ccc1O[C@H]1CCC[C@H](C(=O)O)C1 [Example 7]

Structure (SMILES): C[C@@H](N)[C@H]1CC[C@H](C(=O)Nc2ccncc2)CC1 [Example Y-27632]
allodynia and hyperalgesia (nerve-injured mice): completely abolished

Structure (SMILES): Cc1noc(-c2ccc(CSCCC(=O)O)cc2)c1NC(=O)OC(C)c1ccccc1Cl (centres unmarked) [Ki16425]
chemotaxis of human foetal lung fibroblasts induced by BAL from IPF patients [3]: blocked
increased fibroblast chemotactic activity in bronchoalveolar lavage samples of IPF subjects [3]: inhibited
LPA-induced and ascites-induced invasion activity [4]: blocked
LPA induction of CTGF expression (CTGF): almost completely suppressed
renal fibrosis profile in UUO mice (UUO mice): closely resembled the profile of LPA1 (−/−) mice
in vitro migration in response to LPA and peritoneal fluid (ascites) from pancreatic cancer patients [5]: effectively blocked

Reference: patent US11261180B2, “Cyclohexyl acid isoxazole azoles as LPA antagonists” (Bristol-Myers Squibb Company, priority 2017, dated 2022)
